The subject of one data set is ischemic stroke. The note with it: cited from earlier work.
Data set [1] deals with adult Sprague-Dawley rats. The data set can be described thus: endovascular middle cerebral artery occlusion (MCAO) stroke models, permanent and 3-hour. In kind it is in vivo, rat. An excerpt:
The laboratory observations in support of the disclosed invention include experiments with rats. In experimental studies, the control groups of animal received identical handling plus an intraperitoneal injection of the vehicle alone (i.e. without melatonin).

The test system of a further data set is women. The conditions noted are these: oral, about 300 mg daily for about 4 months; cited from earlier work.
[2] abbreviates: clinical trials on neuroprotection against ischemic stroke.
Where [3] appears, read: second and third doses added at 24 and 48 hours of ischemia.

Entries after “also recorded” stand apart in the source; their conditions may differ. Like-named read-outs stand apart in the source and are kept apart here.

Consider 18 molecules from patent publication US20040223963A1, “Method for treating ischemic stroke with melatonin” (priority 2003, published 2004).

For the molecule `O=C(O)[C@@H]1C[C@H](CP(=O)(O)O)CCN1` (racemic) [Selfotel], in the data set with ischemic stroke (setting [2]), the “Results (adverse effects)” value was “Trial stopped, adverse effects”.

Turning to `CCc1cccc(N(C)C(N)=Nc2cccc3ccccc23)c1` [Aptiganel], the “Results (adverse effects)” value in the data set with ischemic stroke (setting [2]) is “Trial stopped, adverse effects”.

As to `COc1ccc(Cl)cc1[C@]1(F)C(=O)Nc2cc(C(F)(F)F)ccc21` [BMS-204352], the “Results (efficacy)” value in the data set on ischemic stroke (setting [2]) was “No efficacy”.

Take `CN1CC[C@@]23CCCC[C@@H]2[C@@H]1Cc1ccc(O)cc13` [Dextrorfan]: in the data set on ischemic stroke (setting [2]), the “Results (adverse effects)” value is “Trial stopped, adverse effects”.

`C[C@]12N[C@H](Cc3ccccc31)c1ccccc12` [Dizolcipine]: the “Results (adverse effects)” value in the data set on ischemic stroke (setting [2]) was “Trial stopped, adverse effects”.

As for `OC(CN1CCC(Cc2ccc(F)cc2)CC1)c1ccc(Cl)cc1` (centres unmarked) [Eliprodil], the “Results (efficacy)” value with ischemic stroke (setting [2]) was “No efficacy”.

As to `Fc1ccc(C(c2ccc(F)cc2)N2CCN(C/C=C/c3ccccc3)CC2)cc1` [Flunarizine], the “Results (efficacy)” value in the data set on ischemic stroke (setting [2]) is “No efficacy”.

For the molecule `O=C1NC(c2ccccc2)(c2ccccc2)C(=O)N1COP(=O)(O)O` [Fosphenytoin], the “Results (efficacy)” value with ischemic stroke (setting [2]) is “No efficacy”.

As to `O=C(/C=C/c1c(C(=O)O)[nH]c2cc(Cl)cc(Cl)c12)Nc1ccccc1` [GV150526], the “Results (efficacy)” value in the data set with ischemic stroke (setting [2]) was “No efficacy”.

Regarding `COC(=O)C1=C(C)NC(C)=C(C(=O)OC(C)C)C1c1cccc2nonc12` (centres unmarked) [Isradipine], the “Results (efficacy)” value in the data set on ischemic stroke (setting [2]) is given as “No efficacy”.

Turning to `CN(c1nc2ccccc2s1)C1CCN(C[C@H](O)COc2ccc(F)c(F)c2)CC1` [Lubeluzole], the “Results (efficacy)” value in the data set on ischemic stroke (setting [2]) is listed as “No efficacy”.

With `NS(=O)(=O)c1cccc2c1c([N+](=O)[O-])cc1nc(O)c(O)nc12` [NBQX], the “Results (adverse effects)” value with ischemic stroke (in vivo) is “Trial stopped, adverse effects”.

Consider `C=C1CC[C@@]2(O)[C@H]3Cc4ccc(O)c5c4[C@@]2(CCN3CC2CC2)[C@H]1O5` [Nalmefene], for which, in the data set with ischemic stroke (setting [2]), the “Results (efficacy)” value is reported as “No efficacy”.

As to `NC(=O)CN1CCCC1=O` [Piracetam], in the data set with ischemic stroke (setting [2]), the “Results (efficacy)” value was “No overall efficacy,”.

Regarding `CCCn1cnc2c1c(=O)n(CCCCC(C)=O)c(=O)n2C` [Propentophylline], the “Results (adverse effects)” value in the data set with ischemic stroke (setting [2]) is reported as “Trial stopped, adverse effects”.

`C[C@@H]1C[C@H]2[C@@H]3CCC4=CC(=O)C=C[C@]4(C)C3=CC[C@]2(C)[C@H]1C(=O)CN1CCN(c2cc(N3CCCC3)nc(N3CCCC3)n2)CC1` [Tirilazad]: in the data set with ischemic stroke (setting [2]), the “Results (efficacy)” value is reported as “No efficacy”.

Take `COc1ccc2[nH]cc(CCNC(C)=O)c2c1` [melatonin]: in data set [1] (50 mg/kg), the “efficacy at high dose” value is “effective”. The harmful effects entry in data set [1] (doses up to about 50 mg/kg) is listed as “can be administered safely; also recorded: no evidence of producing any harmful effects”. Moreover, the “reduction of infarct volume” value in data set [1] (pre-treatment, single i.p. injection, about 5 to about 15 mg/kg, at about 72 hours, permanent and 3-hour MCAO) was “about 40%”. In data set [1] (pre-treatment, single i.p. injection, about 5 to about 15 mg/kg, permanent and 3-hour MCAO), the “effect on systemic hemodynamic parameters and regional cerebral blood flow” value is on record as “without affecting”. Besides, in data set [1] (setting [3]), the “infarct volume with additional doses” value is “tended to achieve increased reduction in infarct volume” and the treatment time window result is recorded as “failed to extend the treatment time window beyond about 3 hours”. Besides, in data set [1] (single injection about 5 mg/kg commenced at 1 hour or less after onset of ischemia, 3-hour MCAO), the “efficacy of treatment after onset of ischemia” value is on record as “effective”. In the data set on women, the effect on ovulation entry is given as “inhibit ovulation” and the side effects entry is “without significant side effects”.

As for bFGF: Neurotrophic factor, the “Results (adverse effects)” value in the data set on ischemic stroke (in vivo) is listed as “Trial stopped, adverse effects”.
